Consider two compounds from patent publication US7678384B2, “Vinylaminopyrazole derivatives as pesticides” (Merial Limited, priority 2004, dated 2010).

Holding throughout (format): in vivo
The test system of experiment [1] is Ctenocephalides felis (Cat flea). The experiment in a line: Method A: screening method to test systemicity against Ctenocephalides felis (artificial dog test, treated bovine blood). Particulars: test concentration 1 ppm in bovine blood; 10 adults; assessment at 24 and 48 hours. Here is the method:
METHOD A: Screening method to test systemicity of compounds against Ctenocephalides felis (Cat flea)
A test container was filled with 10 adults of Ctenocephalides felis. A glass cylinder was closed on one end with parafilm and placed on top of the test container. The test compound solution was then pipetted into bovine blood and added to the glass cylinder. The treated Ctenocephalides felis were held in this artificial dog test (blood 37° C., 40-60% relative humidity; Ctenocephalides felis 20-22° C., 40-60% relative humidity) and assessment performed at 24 and 48 hours after application.

The subject of experiment [2] is Diabrotica undecimpunctata (southern corn rootworm). The experiment in a line: Method B: Diabrotica undecimpunctata (southern corn rootworm) screen. Particulars: concentration 10 ppm; eggs on filter paper with maize seed; assessed 6 days after application. An excerpt: METHOD B: Diabrotica undecimpunctata (southern corn rootworm) screen
Two days before application, seeds of maize were soaked in water under warm conditions to elicit fast germination. One day before application, eggs of Diabrotica undecimpunctata were transferred to one half of a Japanese filter paper placed in a plastic petri dish. Afterwards, a sprouted maize seed was placed on a moistened pad beside the filter paper. Three drops of 200 microlitres of test compound solution were carefully pipetted onto the egg. The remainder of the solution was placed on the maize and then the Petri dish was closed. The treated eggs in the Petri dishes were held in a climate chamber for 6 days. The compound efficacy (percentage of dead eggs and/or larvae in comparison to untreated control) was assessed 6 days after application using a binocular microscope. Compound number 1-1 gave at least 60% control with the concentration at 10 ppm.

The subject of experiment [3] is Rhipicephalus sanguineus (Brown dog tick). The experiment in a line: Method D: screening method to test contact activity against Rhipicephalus sanguineus. The settings on record: test concentration 10 ppm; filter paper contact; L1 larvae; 24 hours after application. How it is done: METHOD D: Screening method to test contact activity against Rhipicephalus sanguineus (Brown dog tick)
Solutions of the test compounds were dropped onto filter paper, dried and the filter paper placed into test tubes and infested with 20-30 larvae (L1) of Rhipicephalus sanguineus and the tubes closed with a clip. The treated Rhipicephalus sanguineus were held in a climate chamber (25° C., 90% RH) and the percentage efficacy assessed 24 hours after application in comparison with the untreated control.

The test system of experiment [4] is Frankliniella occidentalis. The experiment in a line: Method F: Thrip (Frankliniella occidentalis) screen. Particulars: concentration 100 ppm; French bean leaf dip; mixed population; after 7 days. Here is the method:
METHOD F: Thrip (Frankliniella occidentalis) Screen
French bean plants are cut at the base of the stem and transferred into bottles filled with tap water. The leaves are then dipped for 5 seconds into an aqueous solution of the formulated preparation to be examined. After the solution has run off, the leaves are infested with 20-30 individuals of a mixed population of flower thrips (Frankliniella occidentalis) and then stored in a controlled-environment cabinet at approx. 25° C. After 7 days storage, the effect of the preparation on the thrips is determined. Compound number 1-1 gave at least 70% control of Frankliniella occidentalis at the concentration of 100 ppm.

In the next experiment the test system is Nilaparvata lugens. The experiment in a line: Method C: Rice leafhopper screen. Particulars: foliar, 144 h, read-out: control of Nilaparvata lugens (mortality among leafhopper larvae). Here is the method:
METHOD C: Rice leafhopper screen
The leaves of rice plants are dipped for 5 seconds into an aqueous solution of the formulated preparation to be examined. After the solution has run off, the rice plants are placed in a Petri dish and populated with about 20 larvae (L3 stage) of the rice leafhopper species Nilaparvata lugens. The Petri dish is closed and then stored in a climatized chamber (16 hours of light/day, 25° C., 40-60% relative atmospheric humidity). After 6 days storage, the mortality among the leafhopper larvae is determined. Compound number 1-1 gave at least 60% control of Nilaparvata lugens with the concentration of 10 ppm.

In experiment [5] the test system is tobacco budworm (Heliothis virescens). The experiment in a line: Method E: Heliothis virescens screen. The settings on record: concentration 100 ppm; egg dip; after 6 days. Here is the method: METHOD E: Heliothis Virescens Screen
A Petri dish whose bottom is covered with filter paper and which contains about 5 ml of culture medium is prepared. Pieces of filter paper with about 30, 24-hour-old eggs of the tobacco budworm (Heliothis virescens) are dipped into an aqueous solution of the formulated preparation to be examined for about 5 seconds and subsequently placed into the Petri dish. A further 200 μl of the aqueous solution are dropped over the culture medium. The Petri dish is closed and then kept at about 25° C. in a climatized chamber. After 6 days storage, the effect of the preparation on the eggs and the larvae which may have hatched from these is determined. Compound number 1-1 gave at least 50% control of tobacco budworm with the concentration at 100 ppm.

Bounds are passed on as bounds.

As for `C=CN(C)c1c(S(=O)(=O)C(F)(F)F)c(C#N)nn1-c1c(Cl)cc(C(F)(F)F)cc1Cl` [Compound 1-1, 1-[2,6-dichloro-4-(trifluoromethyl)phenyl]-5-[methyl(vinyl)amino]-4-[(trifluoromethyl)sulfonyl]-1H-pyrazole-3-carbonitrile], the “control of Ctenocephalides felis” value in experiment [1] was “at least 50%”. Besides, in experiment [2], the “control (percentage of dead eggs and/or larvae in comparison to untreated control)” value is “at least 60%”. Besides, the “control (percentage efficacy in comparison with untreated control)” value in experiment [3] is listed as “at least 50%”. Besides, the “control of Frankliniella occidentalis” value in experiment [4] was “at least 70%”. For the same compound, the mortality at 10 ppm in the experiment on Nilaparvata lugens was no less than 60%. In experiment [5], the “control of tobacco budworm (effect on eggs and larvae)” value is “at least 50%”.

Regarding `CN(CCI)c1c(S(=O)(=O)C(F)(F)F)c(C#N)nn1-c1c(Cl)cc(C(F)(F)F)cc1Cl` [Intermediate Example 2, 1-[2,6-dichloro-4-(trifluoromethyl)phenyl]-5-[(2-iodoethy)(methyl)amino]-4-[(trifluoromethyl)sulfonyl]-1H-pyrazole-3-carbonitrile], the “control of Ctenocephalides felis” value in experiment [1] is “at least 70%”.
